Measurements as given in ChEMBL document CHEMBL5634178, “Precursor-Directed Biosynthesis of Neoantimycin Derivatives with Selective Cytotoxicity” (J Nat Prod, 2024).
pIC50: −log10 of the molar value.

Key:
A549 = experiment: Cytotoxicity against human A549 cells expressing K-Ras […] mutant assessed as reduction in cell viability incubated for 72 hrs by CCK-8 assay; format: functional, cell-based; conditions: A549, 72 h
NCI-H460 = experiment: Cytotoxicity against human NCI-H460 cells expressing K-Ras Q61H mutant assessed as reduction in cell viability incubated for 72 hrs by CCK-8 assay; format: functional, cell-based; conditions: NCI-H460, 72 h
HT-29 = experiment: Cytotoxicity against wild type human HT-29 cells assessed as reduction in cell viability incubated for 72 hrs by CCK-8 assay; format: functional, cell-based; conditions: HT-29, 72 h
[1] = Cytotoxicity against human NCM460 cells assessed as reduction in cell viability incubated for 72 hrs by CCK-8 assay; format: toxicity, cell-based
SW-620 = experiment: Cytotoxicity against human SW620 cells expressing K-Ras G12V mutant assessed as reduction in cell viability incubated for 72 hrs by CCK-8 assay; format: functional, cell-based; conditions: SW-620, 72 h
NCI-H1299 = experiment: Cytotoxicity against human NCI-H1299 cells expressing N-ras mutant assessed as reduction in cell viability incubated for 72 hrs by CCK-8 assay; format: functional, cell-based; conditions: NCI-H1299, 72 h
DLD-1 = experiment: Cytotoxicity against human DLD-1 cells expressing K-Ras G13D mutant assessed as reduction in cell viability incubated for 72 hrs by CCK-8 assay; format: functional, cell-based; conditions: DLD-1, 72 h

CC[C@H](C)[C@@H]1OC(=O)C(C)(C)C(=O)[C@H](Cc2ccccc2)OC(=O)[C@H](C(C)C)OC(=O)[C@@H](NC(=O)c2ccccc2)[C@@H](C)OC1=O
pIC50 (A549): < 4.70 | pIC50 (NCI-H460): < 4.70 | pIC50 (HT-29): < 4.70 | IC50 at 72 h [1]: > 20 µM | pIC50 (SW-620): 6.44 | pIC50 (NCI-H1299): < 4.70 | pIC50 (DLD-1): 5.72

CC[C@H](C)[C@@H]1OC(=O)C(C)(C)C(=O)[C@H](Cc2ccccc2)OC(=O)[C@H](C(C)C)OC(=O)[C@@H](NC(=O)c2cccc(F)c2)[C@@H](C)OC1=O
pIC50 (A549): < 4.70 | pIC50 (NCI-H460): < 4.70 | pIC50 (HT-29): < 4.70 | IC50 at 72 h [1]: > 20 µM | pIC50 (SW-620): 5.96 | pIC50 (NCI-H1299): < 4.70 | pIC50 (DLD-1): 5.46

CC[C@H](C)[C@@H]1OC(=O)C(C)(C)C(=O)[C@@H](Cc2ccccc2)OC(=O)[C@H](C(C)C)OC(=O)[C@@H](NC(=O)c2cccc(F)c2)[C@@H](C)OC1=O
pIC50 (A549): 4.95 | pIC50 (NCI-H460): 5.06 | pIC50 (HT-29): < 4.70 | IC50 at 72 h [1]: > 20 µM | pIC50 (SW-620): 6.48 | pIC50 (NCI-H1299): < 4.70 | pIC50 (DLD-1): 5.57

CC[C@H](C)[C@@H]1OC(=O)C(C)(C)C(=O)[C@@H](Cc2ccccc2)OC(=O)[C@H](C(C)C)OC(=O)[C@@H](NC(=O)c2cccc(O)c2)[C@@H](C)OC1=O
pIC50 (A549): 5.00 | pIC50 (NCI-H460): < 4.70 | pIC50 (HT-29): < 4.70 | IC50 at 72 h [1]: > 20 µM | pIC50 (SW-620): 5.72 | pIC50 (NCI-H1299): < 4.70 | pIC50 (DLD-1): < 4.70

CC[C@H](C)[C@@H]1OC(=O)C(C)(C)C(=O)[C@@H](Cc2ccccc2)OC(=O)[C@H](C(C)C)OC(=O)[C@@H](NC(=O)c2ccccc2)[C@@H](C)OC1=O
pIC50 (A549): 6.48 | pIC50 (NCI-H460): 5.80 | pIC50 (HT-29): < 4.70 | IC50 at 72 h [1]: > 20 µM | pIC50 (SW-620): 7.40 | pIC50 (NCI-H1299): 5.35 | pIC50 (DLD-1): 7.15

CC[C@H](C)[C@@H]1OC(=O)C(C)(C)C(=O)[C@@H](Cc2ccccc2)OC(=O)[C@H](C(C)C)OC(=O)[C@@H](NC(=O)c2ccccc2O)[C@@H](C)OC1=O
pIC50 (A549): 5.01 | pIC50 (NCI-H460): 5.36 | pIC50 (HT-29): < 4.70 | IC50 at 72 h [1]: 6.6 µM | pIC50 (SW-620): 6.48 | pIC50 (NCI-H1299): < 4.70 | pIC50 (DLD-1): 5.55

CC[C@H](C)[C@@H]1OC(=O)C(C)(C)C(=O)[C@@H](Cc2ccccc2)OC(=O)[C@H](C(C)C)OC(=O)[C@@H](NC(=O)c2ccccc2F)[C@@H](C)OC1=O
pIC50 (A549): 5.37 | pIC50 (NCI-H460): 5.89 | pIC50 (HT-29): < 4.70 | IC50 at 72 h [1]: > 20 µM | pIC50 (SW-620): 6.85 | pIC50 (NCI-H1299): 5.48 | pIC50 (DLD-1): 6.22

CC[C@H](C)[C@@H]1OC(=O)C(C)(C)[C@@H](O)[C@@H](Cc2ccccc2)OC(=O)[C@H](C(C)C)OC(=O)[C@@H](NC(=O)c2cccc(NC=O)c2O)[C@@H](C)OC1=O
pIC50 (A549): 10.40 | pIC50 (NCI-H460): 6.50 | pIC50 (HT-29): 9.22 | IC50 at 72 h [1]: 0.00024 µM | pIC50 (SW-620): 8.42 | pIC50 (NCI-H1299): 7.98 | pIC50 (DLD-1): 7.23

CC[C@H](C)[C@@H]1OC(=O)C(C)(C)C(=O)[C@H](Cc2ccccc2)OC(=O)[C@H](C(C)C)OC(=O)[C@@H](NC(=O)c2ccccc2F)[C@@H](C)OC1=O
pIC50 (A549): < 4.70 | pIC50 (NCI-H460): < 4.70 | pIC50 (HT-29): 5.03 | IC50 at 72 h [1]: > 20 µM | pIC50 (SW-620): 6.25 | pIC50 (NCI-H1299): < 4.70 | pIC50 (DLD-1): 5.59

CC[C@H](C)[C@@H]1OC(=O)C(C)(C)C(=O)[C@H](Cc2ccccc2)OC(=O)[C@H](C(C)C)OC(=O)[C@@H](NC(=O)c2cccc(O)c2)[C@@H](C)OC1=O
pIC50 (A549): < 4.70 | pIC50 (NCI-H460): 4.75 | pIC50 (HT-29): < 4.70 | IC50 at 72 h [1]: > 20 µM | pIC50 (SW-620): 5.89 | pIC50 (NCI-H1299): 5.51 | pIC50 (DLD-1): < 4.70
